The structures appear in SMILES notation.

The target in this test is T1, human FSH receptor (Homo sapiens, UniProt P23945).
T1 construct: expressed in transfected cells; host or cells: Chinese Hamster Ovary (CHO) cells
T1 sequence (P23945 18-695): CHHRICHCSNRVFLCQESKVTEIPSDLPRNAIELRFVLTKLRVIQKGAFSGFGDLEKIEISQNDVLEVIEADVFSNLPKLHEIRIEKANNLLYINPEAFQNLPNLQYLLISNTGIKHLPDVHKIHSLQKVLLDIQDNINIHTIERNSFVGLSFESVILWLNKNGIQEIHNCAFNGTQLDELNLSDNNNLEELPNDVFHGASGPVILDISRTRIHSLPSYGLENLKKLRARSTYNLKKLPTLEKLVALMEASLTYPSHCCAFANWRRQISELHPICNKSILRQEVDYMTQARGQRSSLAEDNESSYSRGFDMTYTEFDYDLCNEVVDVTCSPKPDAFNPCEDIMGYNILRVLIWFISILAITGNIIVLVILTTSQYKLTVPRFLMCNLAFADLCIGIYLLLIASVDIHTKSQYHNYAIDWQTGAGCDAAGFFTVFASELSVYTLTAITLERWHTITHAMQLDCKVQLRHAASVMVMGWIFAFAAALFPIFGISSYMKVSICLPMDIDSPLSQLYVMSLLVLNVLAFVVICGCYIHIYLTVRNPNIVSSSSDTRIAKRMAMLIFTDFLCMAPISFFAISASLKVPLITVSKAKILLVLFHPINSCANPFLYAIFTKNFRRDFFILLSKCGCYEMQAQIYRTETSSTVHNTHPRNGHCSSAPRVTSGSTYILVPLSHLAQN
As to the kind of experiment: CHO-FSH in vitro bio activity (CRE-luciferase reporter). Type of test: cell-based. To be noted: CHO cells stably transfected with human FSH receptor and CRE/luciferase reporter; half-maximal (50%) stimulation. The protocol:
FSH activity of compounds were tested in Chinese Hamster Ovary (CHO) cells stably transfected with the human FSH receptor and cotransfected with a cAMP responsive element (CRE)/promotor directing the expression of a firefly luciferase reporter gene. Binding of ligand to the Gs-coupled FSH receptor will result in an increase of cAMP, which in turn will induce an increased transactivation of the luciferase reporter construct. The luciferase signal was quantified using a luminescence counter. For test compounds, EC50 values (concentration of test compound causing half-maximal (50%) stimulation) were calculated. For that purpose the software program GraphPad PRISM, version 3.0 (GraphPad software Inc., San Diego) was used.
(In a reporter assay the amount or activity of a reporter protein is the signal.)
Consider `CC(=O)N1c2ccc(NC(=O)OC(C)(C)C)cc2C(C)(c2ccccc2)CC1(C)C` (stereo not shown) [Example 1, 1-Acetyl-6-(tert-butoxycarbonyl)amino-4-phenyl-1,2,3,4-tetrahydro-2,2,4-trimethylquinoline], for which the EC50 was less than 100 nM. For `CC(=O)N1c2ccc(NC(=O)c3ccc(Cl)cc3)cc2C(C)(c2ccccc2)CC1(C)C` (stereo not shown) [Example 6, 1-Acetyl-6-(4-chlorobenzoyl)amino-4-phenyl-1,2,3,4-tetrahydro-2,2,4-trimethylquinoline] the value was less than 100 nM; for `CC(=O)N1c2ccc(NC(=O)c3ccccc3)cc2C(C)(c2ccccc2)CC1(C)C` (stereo not shown) [Example 7, 1-Acetyl-6-benzoylamino-4-phenyl-1,2,3,4-tetrahydro-2,2,4-trimethylquinoline], less than 100 nM; for `CC(=O)N1c2ccc(NC(=O)c3ccc(C(F)(F)F)cc3)cc2C(C)(c2ccccc2)CC1(C)C` (stereo not shown) [Example 8, 1-Acetyl-4-phenyl-1,2,3,4-tetrahydro-6-(4-[trifluoromethyl]benzoyl)amino-2,2,4-trimethylquinoline], less than 100 nM. Compound `CC(=O)N1c2ccc(NC(=O)c3ccc([N+](=O)[O-])cc3)cc2C(C)(c2ccccc2)CC1(C)C` (stereo not shown) [Example 9, 1-Acetyl-6-(4-nitrobenzoyl)amino-4-phenyl-1,2,3,4-tetrahydro-2,2,4-trimethylquinoline] displayed an EC50 of less than 100 nM. For `CCCc1ccc(C(=O)Nc2ccc3c(c2)C(C)(c2ccccc2)CC(C)(C)N3C(C)=O)cc1` (stereo not shown) [Example 10, 1-Acetyl-4-phenyl-6-(4-n-propylbenzoyl)amino-1,2,3,4-tetrahydro-2,2,4-trimethylquinoline] the value was less than 100 nM; for `COc1ccc(Br)c(OC)c1C(=O)Nc1ccc2c(c1)C(C)(c1ccccc1)CC(C)(C)N2C(C)=O` (stereo not shown) [Example 11, 1-Acetyl-6-(3-bromo-2,6-dimethoxybenzoyl)amino-4-phenyl-1,2,3,4-tetrahydro-2,2,4-trimethylquinoline], less than 100 nM; for `CC(=O)N1c2ccc(NC(=O)c3ccc(-c4ccccc4)cc3)cc2C(C)(c2ccccc2)CC1(C)C` (stereo not shown) [Example 12, 1-Acetyl-4-phenyl-6-(4-phenylbenzoyl)amino-1,2,3,4-tetrahydro-2,2,4-trimethylquinoline], less than 100 nM. As for `CC(=O)N1c2ccc(NC(=O)c3ccc(-c4ccc(Cl)cc4)cc3)cc2C(C)(c2ccccc2)CC1(C)C` (stereo not shown) [Example 13, 1-Acetyl-6-(4-[4-chlorophenyl]benzoyl)amino-4-phenyl-1,2,3,4-tetrahydro-2,2,4-trimethylquinoline], the EC50 is less than 100 nM. `COc1ccc(-c2ccccc2)c(C(=O)Nc2ccc3c(c2)C(C)(c2ccccc2)CC(C)(C)N3C(C)=O)c1` (stereo not shown) [Example 15, 1-Acetyl-4-phenyl-6-(2-phenyl-5-methoxybenzoyl)amino-1,2,3,4-tetrahydro-2,2,4-trimethylquinoline] gave an EC50 of less than 100 nM. `CC(=O)N1c2ccc(NC(=O)c3cccc(C)c3-c3ccccc3)cc2C(C)(c2ccccc2)CC1(C)C` (stereo not shown) [Example 16, 1-Acetyl-4-phenyl-6-(2-phenyl-3-methylbenzoyl)amino-1,2,3,4-tetrahydro-2,2,4-trimethylquinoline] displayed an EC50 of less than 100 nM. Compound `CC(=O)N1c2ccc(NC(=O)CCc3ccccc3)cc2C(C)(c2ccccc2)CC1(C)C` (stereo not shown) [Example 21, 1-Acetyl-4-phenyl-6-(3-phenylpropionyl)amino-1,2,3,4-tetrahydro-2,2,4-trimethylquinoline] gave an EC50 of less than 100 nM. `CC(=O)N1c2ccc(NC(=O)c3ccco3)cc2C(C)(c2ccccc2)CC1(C)C` (stereo not shown) [Example 22, 1-Acetyl-6-(2-furoyl)amino-4-phenyl-1,2,3,4-tetrahydro-2,2,4-trimethylquinoline] yielded an EC50 of less than 100 nM. The compound `CC(=O)N1c2ccc(NC(=O)CC(C)C)cc2C(C)(c2ccccc2)CC1(C)C` (stereo not shown) [Example 23, 1-Acetyl-6-(isovaleryl)amino-4-phenyl-1,2,3,4-tetrahydro-2,2,4-trimethylquinoline] registered an EC50 of less than 100 nM. For `CC(=O)N1c2ccc(NC(=O)CCC34CC5CC(CC(C5)C3)C4)cc2C(C)(c2ccccc2)CC1(C)C` (stereo not shown) [Example 24, 1-Acetyl-6-(3-[adamantan-1-yl]propionyl)amino-4-phenyl-1,2,3,4-tetrahydro-2,2,4-trimethylquinoline] the value was less than 100 nM. As for `CC(=O)N1c2ccc(NC(=O)CN3CCN(c4ccccc4)CC3)cc2C(C)(c2ccccc2)CC1(C)C` (stereo not shown) [Example 30, 1-Acetyl-6-([4-{1-phenyl}-piperazinyl]methylcarbonyl)amino-4-phenyl-1,2,3,4-tetrahydro-2,2,4-trimethylquinoline], the figure is less than 100 nM. For `COc1ccc(COC(=O)c2ccc3c(c2)C(C)(c2ccccc2)CC(C)(C)N3C(C)=O)cc1` (stereo not shown) [Example 36, 1-Acetyl-6-(4-methoxybenzyloxy)carbonyl-4-phenyl-1,2,3,4-tetrahydro-2,2,4-trimethylquinoline] the value was less than 100 nM. In the case of `CC(=O)N1c2ccc(OC(=O)c3ccc(-c4ccccc4)cc3)cc2C(C)(c2ccccc2)CC1(C)C` (stereo not shown) [Example 37, 1-Acetyl-6-(4-phenylbenzoyl)oxy-4-phenyl-1,2,3,4-tetrahydro-2,2,4-trimethylquinoline], the EC50 was less than 100 nM. With `CC(=O)N1c2cc(C)c(NC(=O)c3ccc(-c4ccccc4)cc3)cc2C(C)(c2ccccc2)CC1(C)C` (stereo not shown) [Example 45, 1-Acetyl-6-(4-phenylbenzoyl)amino-4-phenyl-1,2,3,4-tetrahydro-2,2,4,7-tetramethylquinoline], the EC50 was less than 100 nM. As for `COc1cc(NC(=O)c2ccc(-c3ccccc3)cc2)cc2c1N(C(C)=O)C(C)(C)CC2(C)c1ccccc1` (stereo not shown) [Example 46, 1-Acetyl-6-(4-phenylbenzoyl)amino-8-methoxy-4-phenyl-1,2,3,4-tetrahydro-2,2,4-trimethylquinoline], the EC50 is less than 100 nM. As for `CC(=O)N1c2ccc(NC(=O)c3cc(Br)cc(Br)c3)cc2C(C)(c2ccccc2)CC1(C)C` (stereo not shown) [Example 50, 1-Acetyl-6-(3,5-dibromobenzoyl)amino-4-phenyl-1,2,3,4-tetrahydro-2,2,4-trimethylquinoline], the figure is less than 100 nM; as for `CNc1ccc(Br)cc1C(=O)Nc1ccc2c(c1)C(C)(c1ccccc1)CC(C)(C)N2C(C)=O` (stereo not shown) [Example 51, 1-Acetyl-6-(5-bromo-2-methylaminobenzoyl)amino-4-phenyl-1,2,3,4-tetrahydro-2,2,4-trimethylquinoline], less than 100 nM; as for `COc1cc(C(=O)Nc2ccc3c(c2)C(C)(c2ccccc2)CC(C)(C)N3C(C)=O)cc(OC)c1OC` (stereo not shown) [Example 52, 1-Acetyl-6-(3,4,5-trimethoxybenzoyl)amino-4-phenyl-1,2,3,4-tetrahydro-2,2,4-trimethylquinoline], less than 100 nM. For `COc1c(Cl)cc(Cl)c(OC)c1C(=O)Nc1ccc2c(c1)C(C)(c1ccccc1)CC(C)(C)N2C(C)=O` (stereo not shown) [Example 53, 1-Acetyl-6-(3,5-dichloro-2,6-dimethoxybenzoyl)amino-4-phenyl-1,2,3,4-tetrahydro-2,2,4-trimethylquinoline] the value was less than 100 nM; for `CC(=O)N1c2ccc(NC(=O)c3ccccc3OS(C)(=O)=O)cc2C(C)(c2ccccc2)CC1(C)C` (stereo not shown) [Example 58, 1-Acetyl-6-(2-methylsulfonyloxybenzoyl)amino-4-phenyl-1,2,3,4-tetrahydro-2,2,4-trimethylquinoline], less than 100 nM; for `CC(=O)N1c2ccc(NC(=O)c3ccccc3OC(=O)c3cc(C)on3)cc2C(C)(c2ccccc2)CC1(C)C` (stereo not shown) [Example 61, 1-Acetyl-6-(2-[5-methylisoxazole-3-carbonyl]oxybenzoyl)amino-4-phenyl-1,2,3,4-tetrahydro-2,2,4-trimethylquinoline], less than 100 nM.

For the compound `CC(=O)N1c2ccc(NC(=O)c3ccccc3OC(=O)N3CCOCC3)cc2C(C)(c2ccccc2)CC1(C)C` (stereo not shown) [Example 63, 1-Acetyl-6-(2-[morpholino-4-carbonyl]oxybenzoyl)amino-4-phenyl-1,2,3,4-tetrahydro-2,2,4-trimethylquinoline], the EC50 was less than 100 nM. As for `CC(=O)N1c2ccc(NC(=O)c3ccccc3Nc3ccccc3)cc2C(C)(c2ccccc2)CC1(C)C` (stereo not shown) [Example 64, 1-Acetyl-6-(2-phenylaminobenzoyl)amino-4-phenyl-1,2,3,4-tetrahydro-2,2,4-trimethylquinoline], the figure is less than 100 nM.

The EC50 is the concentration that produces a half-maximal response.

Values taken from patent US8258293B2, “Tetrahydroquinoline derivatives” (MSD OSS B.V., priority 2001, dated 2012).
